Several values for one entry are separate records, joined by “and”; a condition that tells them apart may be missing. Equal values may be shown once.
What was measured:
[1] = target: T1, human dopamine transporter (Homo sapiens, UniProt Q01959); assay: [3H]Dopamine uptake inhibition, hDAT cells; assay type: cell-based; settings: for Uptake to Binding Ratio (Kiuptake/Kibinding): ratio of Kiuptake to Kibinding at hDAT
T1 construct: expressed in transfected cells

[2] = target: T2, cocaine binding site of the human dopamine transporter (Homo sapiens, UniProt Q01959); assay: [3H]CFT binding at the cocaine binding site, hDAT cells
T2 construct: expressed in transfected cells

[3] = tested on: alcohol-preferring (P) line of rats; assay: Inhibition of ethanol intake in alcohol-preferring rats; assay type: in vivo, rat; settings: 30 mg/kg i.p.
Experimental: The effect of systemic administration of (R)-(+)-α,α-diphenyl-2-pyrrolidinemethanol on ethanol intake in the alcohol-preferring (P) line of rats was performed as previously described by Panocka et al., Pharm. Biochem. and Behavior, 1995, 52, 2, 255-259, and Murphy et al., Alcohol, 1985, 2, 349-352. In brief, (R)-(+)-α,α-diphenyl-2-pyrrolidinemethanol (30 mg/kg i.p.) was tested in female P rats (n=8) given daily 1 hour scheduled access to a 10% (v/v) ethanol solution. A within-subject design was used where (R)-(+)-α,α-diphenyl-2-pyrrolidinemethanol treatments were tested once per week. Baseline ethanol drinking consisted of the mean of the 3 days prior to testing in which saline injections were given. (R)-(+)-α,α-diphenyl-2-pyrrolidinemethanol or saline, administered i.p. in 1 ml/kg volumes, were injected 10-15 minutes prior to ethanol access. Twenty-four hour water and daily body weights were recorded to assess non-specific drug effects. Results were analyzed using paired t-tests with baseline and test day values serving as the independent variables. Ethanol intake was recorded as amount of solution consumed (mls).

[4] = tested on: Male Long-Evans rats; assay: Inhibition of nicotine self-administration in male Long-Evans rats; assay type: in vivo, rat; settings: 10, 20 and 30 mg/kg i.p. 15 minutes before 60 minute session; nicotine 30 μg/kg/infusion; FIG. 1
Experimental: Male Long-Evans rats were trained to self-administer nicotine on a fixed ratio schedule of reinforcement, as described by Corrigall et al., Psychopharmacology, Vol. 104, No. 2, pp. 171-176 (1991) and Corrigall et al., Psychopharmacology, Vol. 107, Nos. 2-3, pp. 285-289 (1992). In brief, male Long-Evans rats were food deprived for a short period of time (24-48 hours) and trained to press a lever in an operant responding chamber on an FR-1 schedule of food reinforcement. Once trained, each rat was surgically prepared with a chronic intravenous catheter implanted into the jugular vein. The rats were allowed 1 week to recover from surgery.
After 1 week, nicotine self-administration studies were initiated on an FR-1 with a 60 second signaled time-out following each infusion. During time-out, responding on the lever had no scheduled consequence. Nicotine self-administration sessions were 60 minutes in duration. Each nicotine infusion contained 30 μg of nicotine/kg rat and were delivered in a volume of 54 μl over an infusion duration of 0.3 seconds. 15 minutes before the self-administration sessions, the rats were pre-treated intraperitoneally with (R)-(+)-α,α-diphenyl-2-pyrrolidinemethanol at doses of 10, 20 and 30 mg/kg.

[5] = individual rats P31-P40 (b249-b258 in order)

T2 sequence (Q01959 whole entry): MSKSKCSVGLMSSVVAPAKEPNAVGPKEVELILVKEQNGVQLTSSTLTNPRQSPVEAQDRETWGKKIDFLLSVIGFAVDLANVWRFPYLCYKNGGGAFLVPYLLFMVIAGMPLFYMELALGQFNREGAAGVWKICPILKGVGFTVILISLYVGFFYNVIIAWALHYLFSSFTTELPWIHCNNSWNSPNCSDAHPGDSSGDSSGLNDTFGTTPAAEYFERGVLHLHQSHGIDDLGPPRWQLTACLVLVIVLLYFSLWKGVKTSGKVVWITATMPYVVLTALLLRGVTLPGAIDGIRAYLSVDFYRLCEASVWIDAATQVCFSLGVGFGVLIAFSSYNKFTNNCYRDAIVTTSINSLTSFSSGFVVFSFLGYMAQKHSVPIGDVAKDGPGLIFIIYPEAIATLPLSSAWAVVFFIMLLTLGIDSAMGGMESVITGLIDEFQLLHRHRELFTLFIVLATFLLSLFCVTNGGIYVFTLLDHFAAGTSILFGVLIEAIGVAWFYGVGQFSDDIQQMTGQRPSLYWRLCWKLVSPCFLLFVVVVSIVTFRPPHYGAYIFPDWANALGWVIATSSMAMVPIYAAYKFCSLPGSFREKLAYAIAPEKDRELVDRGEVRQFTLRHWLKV
T1 sequence (Q01959 whole entry): as above

SMILES	Ki [1] [nM]	Uptake to Binding Ratio (Kiuptake/Kibinding) [1]	Ki [2] [nM]	reduction of ethanol consumption ([3]; 1 hour access period, vs saline baseline, p<0.05)	effect on water consumption ([3]; 24 hours following administration)	Post-drug Water 24 hr ([3]; Means of rats P31-P40) [mL]	Post-drug Weight ([3]; Means of rats P31-P40) [g]	Test Day Ethanol 1 hr (g/kg) ([3]; Means of rats P31-P40)	Test Day Ethanol 1 hr (ml) ([3]; Means of rats P31-P40) [mL]	effect on body weights ([3]; P rats)	1 hour ethanol consumption ([3]; female P rats, 10% (v/v) ethanol, mean ± S.E.M., saline baseline 8.2±0.8 mls, p<0.05) [mls]	24 hour water intake ([3]; female P rats, mean ± S.E.M., saline baseline 28±2.2 mls) [mls]	24 hour body weights ([3]; female P rats, mean ± S.E.M., saline baseline 310±6.1 g) [g]	Post-drug Water 24 hr [3, 5]	Post-drug Weight [3, 5]	Test Day Ethanol 1 hr (g/kg) [3, 5]	Test Day Ethanol 1 hr (ml) [3, 5]	nicotine self-administration [4]
Cc1cc(C(O)(c2ccc(F)c(C)c2)[C@@H]2CCCN2)ccc1F [Compound 4, (S)-α,α-Bis(3-methyl-4-fluorophenyl)-2-pyrrolidinemethanol]	440	1.69	260															
OC(c1ccccc1)(c1ccccc1)[C@H]1CCCN1 [Compound 1, (R)-(+)-α,α-diphenyl-2-pyrrolidinemethanol]	170	4.25	40	approximately 45%	no effect	25	300	1.2	4.5	not altered	4.5±1.2	25±2.1	300 ± 6.2	23 mL and 26 mL and 28 mL and 32 mL and 18 mL and 12 mL	329 g and 291 g and 294 g and 305 g and 290 g and 297 g and 312 g and 263 g and 323 g	1.9 g/kg and 0.3 g/kg and 0.5 g/kg and 2.4 g/kg and 1.0 g/kg and 0.8 g/kg and 0 g/kg	8 mL and 7 mL and 1 mL and 2 mL and 10 mL and 9 mL and 4 mL and 3 mL and 0 mL	dose-dependently attenuated
OC(c1ccccc1)(c1ccccc1)[C@@H]1CCCN1 [Compound 2, (S)-(-)-α,α-diphenyl-2-pyrrolidinemethanol]	1650	4.12	400															
CCCN1CCC[C@H]1C(O)(c1ccccc1)c1ccccc1 [Compound 3, (S)-(-)-1-propyl-α,α-diphenyl-2-pyrrolidinemethanol]	10300	3.12	3300															

Reference: patent US5925666A, “Pharmaceutical compositions and methods for treating compulsive disorders using pyrrolidine derivatives” (Guilford Pharmaceuticals Inc., priority 1997, dated 1999)
